Source: patent US10736900B2, “Combinations of an FGFR inhibitor and an IGF1R inhibitor” (ASTEX THERAPEUTICS LTD, priority 2014, dated 2020)

What was measured:
DMS114 cells = assay: Incucyte proliferation (% confluence over time), DMS114 cells, long-term treatment; type: cell-based; details: compound A 1 microM, BMS-754807 300 nM, GSK1838705A 1 microM, each alone
Procedure: The insensitive cells were isolated and profiled with the aim to determine the active signaling pathways that act as drivers for their survival and/or proliferation. Therefore, DMS114 cells, a small cell lung cancer cell line with FGFR1 amplification were plated onto 10 cm culture plates and placed in an incubator at 37° C., 5% CO2. […] In the case of the parental cells with or without DMSO control, when the cells reached the confluence close to 100% they were trypsinized and re-plated back on the plate. […] After about 2-3 weeks from the initial treatment, cells were taken out of the plate by trypsinization and passaged on new plate for further expanding.
There were also treatments of the cells with single agents with or without DMSO or treatments with DMSO alone to serve as vehicle control. The proliferation of the cells was followed using the Incucyt machine, measuring the % of confluence of the cells over time.

resistant DMS114 cells [1] = assay: Alamar blue proliferation assay, DMS114 cells resistant to compound A; type: cell-based
resistant DMS114 cells [2] = assay: Incucyte proliferation, resistant DMS114 cells kept in compound A, long-term treatment; type: cell-based; details: resistant DMS114 cells kept in compound A 1 microM; GSK1838705A 1 microM; over 33 days
From the text: An additional experiment was run wherein the resistant DMS114 cells were exposed to 1 microM of GSK1838705A and the growth/proliferation of the cells was monitored on the Incucyte machine. Cells were kept under this condition for over 33 days, and the medium was replaced twice a week.

[3] = test system: DMS114 cells, a small cell lung cancer cell line with FGFR1 amplification; assay: Alamar blue proliferation assay, parental DMS114 cells; type: cell-based; details: Homo sapiens, DMS-114, 96 h, Parental cells (with DMSO control), 4 days
[4] = test system: most sensitive cancer cell lines; assay: Cell based proliferation assay (alamar blue assay), cancer cell lines; details: read-out: IC50 in the most sensitive cancer cell lines
Procedure: Cells were seeded in 180 μl of medium at optimized cell densities in black 96 well plates with clear flat bottom. The outer wells were filled with 180 μl of medium. Cells were incubated for 24 hours at 37° C. and 5% CO2.
Compound/medium plates were placed on a shaker for 10 minutes and then 20 μl of compound in medium was added to the cells (10× dilution). Cells were incubated at 37° C. and 5% CO2 for 4 days until alamarBlue® readout.
After 4 days of incubation with compound: Add 40 μl of alamarBlue® ready to use mix to each well. Incubate plates at 37° C. and 5% CO2. Measure plates after 4 or 6 hours of incubation (depends on cell line).

SMILES | proliferation (% confluence over time), single agent (DMS114 cells) | IC50 (resistant DMS114 cells [1]; Homo sapiens, DMS-114, 96 h, Resistant cells, 4 days) [nM] | inhibition of proliferation of resistant DMS114 cells (resistant DMS114 cells [1]; resistant DMS114 cells) | proliferation of resistant cells, long term treatment (resistant DMS114 cells [2]) | IC50 [3] [µM] | IC50 [4] [nM]
C[C@@]1(C(=O)Nc2ccc(F)nc2)CCCN1c1nc(Nc2cc(C3CC3)[nH]n2)c2cccn2n1 [BMS-754807] | did not impact the proliferation |  |  |  |  | 
CNC(=O)c1c(F)cccc1Nc1nc(Nc2cc3c(cc2OC)CCN3C(=O)CN(C)C)nc2[nH]ccc12 [GSK1838705A] | did not impact the proliferation | 2000 | strongly inhibited the proliferation of the resistant DMS114 cells | completely blocked and over the long term treatment (>30 days) did not gain ability to grow out | > 10 | 
COc1cc(OC)c(F)c(N(Cc2ncc[nH]2)c2ccc3ncc(-c4cnn(C)c4)nc3n2)c1 [compound B, N-(2-fluoro-3,5-dimethoxyphenyl)-N-(1H-imidazol-2-ylmethyl)-3-(1-methyl-1H-pyrazol-4-yl)pyrido[2,3-b]pyrazin-6-amine] |  |  |  |  |  | < 10
